Literature values, collected in patent US20150202321A1, “COMPOSITIONS COMPRISING CHITOSAN-DRUG CONJUGATES AND METHODS OF MAKING AND USING THE SAME” (NEWGEN BIOPHARMA CORP., priority 2012, published 2015).
Counter-ions that a name gives are not always drawn. Like-named read-outs stand apart in the source and are kept apart here. Each block holds one molecule with its values, some of them ahead of it.

Assays:
[1] = not given; remark: listed apart in the source
[2] = oral

AUC following evening or morning drug administration (evening versus morning): does not differ | absolute bioavailability (man): approximately 20% | elimination half life (man): ~19 h
Compound: CC(C)c1nc(N(C)S(C)(=O)=O)nc(-c2ccc(F)cc2)c1/C=C/[C@@H](O)C[C@@H](O)CC(=O)O [rosuvastatin]

bioavailability ([1]; intravenous administration): 100% | oral bioavailability ([1]; co-administered with cyclosporine): 90%±44% | oral bioavailability ([1]; on its own): 8%±6%
Compound: CC(=O)O[C@@]12CO[C@@H]1C[C@H](O)[C@@]1(C)C(=O)[C@H](O)C3=C(C)[C@@H](OC(=O)[C@H](O)[C@@H](NC(=O)OC(C)(C)C)c4ccccc4)C[C@@](O)([C@@H](OC(=O)c4ccccc4)[C@H]21)C3(C)C [docetaxel]

systemic availability for HMG-CoA reductase activity [2]: approximately 30%
Compound: CC(C)c1c(C(=O)Nc2ccccc2)c(-c2ccccc2)c(-c2ccc(F)cc2)n1CC[C@@H](O)C[C@@H](O)CC(=O)O [AT, [R—(R/,R/)]-2-(4-fluorophenyl)-b,d-dihydroxy-5-(1-methylethyl)-3-phenyl-4-[(phenylamino)carbonyl]-1H-pyrrole-1-heptanoic acid, calcium salt (2:1) trihydrate]
